Laboratory results taken from patent US20230049952A1, “METHODS AND COMPOUNDS FOR RESTORING MUTANT P53 FUNCTION” (PMV Pharmaceuticals, Inc., priority 2020, published 2023).

Biological target: p53 Y220C in MT373 tumors (Homo sapiens, UniProt P04637, Y220C)
Test: MT373 syngeneic sarcoma model: mutant, WT and total p53 ELISA in tumors
Format: in vivo, mouse
Conditions: for Mutant p53 Protein, Percent Reduction Relative to Vehicle Control / Total p53 Protein, Percent Reduction Relative to Vehicle Control / WT p53 Protein, Fold Change over Vehicle Control: MT373 tumors
Description: Tumor Lysate Preparation: Lysis buffer was added to tumor samples and homogenized using a TissueLyser LT. Homogenized samples were spun by centrifuge for 30 minutes at 20817×g, and the supernatant transferred to a 1.5-mL tube. Protein samples were quantified, aliquoted into 96-well plates, and stored at −80° C.
Tumor lysates were diluted in blocking buffer such that the required protein amount is added to the plate in a 100 μL volume (WT p53 7.5 μg; mutant p53 2.5 μg; Total p53 2.5 μg). […] Plates were washed, and the reaction was developed using TMB for approximately 5 minutes and quenched with 0.16 M sulfuric acid. […] A background measurement was subtracted from the treated samples' signals. The signals were normalized to the respective vehicle controls.

## CCn1c(C#CCNc2ccccc2)cc2cc(CNC3CCN(C)CC3)ccc21 [Compound 1, 1-Anilino-3-{1-ethyl-5-[(1-methyl-4-piperidylamino)methyl]-1H-indol-2-yl}-2-propyne]
75 mg/kg BIDx1 PO, 8 h
  Mutant p53 Protein, Percent Reduction Relative to Vehicle Control: 53.91%
  Total p53 Protein, Percent Reduction Relative to Vehicle Control: 35.06%
  WT p53 Protein, Fold Change over Vehicle Control: 1.25 fold
75 mg/kg BIDx1 PO, 24 h
  Mutant p53 Protein, Percent Reduction Relative to Vehicle Control: 79.50%
  Total p53 Protein, Percent Reduction Relative to Vehicle Control: 72.38%
  WT p53 Protein, Fold Change over Vehicle Control: 1.13 fold
75 mg/kg BIDx1 PO, 48 h
  Mutant p53 Protein, Percent Reduction Relative to Vehicle Control: 67.23%
  Total p53 Protein, Percent Reduction Relative to Vehicle Control: 63.03%
  WT p53 Protein, Fold Change over Vehicle Control: 1.02 fold
75 mg/kg BIDx1 PO, 72 h
  Mutant p53 Protein, Percent Reduction Relative to Vehicle Control: 16.87%
  Total p53 Protein, Percent Reduction Relative to Vehicle Control: 19.65%
  WT p53 Protein, Fold Change over Vehicle Control: 1.11 fold
75 mg/kg BIDx1 PO, 98 h
  Mutant p53 Protein, Percent Reduction Relative to Vehicle Control: 0.00%
  Total p53 Protein, Percent Reduction Relative to Vehicle Control: 0.00%
  WT p53 Protein, Fold Change over Vehicle Control: 1.13 fold
75 mg/kg BIDx1 PO, […]
  Mutant p53 Protein, Percent Reduction Relative to Vehicle Control: 45.58%
  Total p53 Protein, Percent Reduction Relative to Vehicle Control: 44.67%
  WT p53 Protein, Fold Change over Vehicle Control: 0.88 fold
75 mg/kg BID×1 PO, 8 h
  increase in WT conformation p53: 1.25 fold
150 mg/kg BIDx1 PO, 8 h
  Mutant p53 Protein, Percent Reduction Relative to Vehicle Control: 82.30%
  Total p53 Protein, Percent Reduction Relative to Vehicle Control: 56.64%
  WT p53 Protein, Fold Change over Vehicle Control: 1.45 fold
150 mg/kg BIDx1 PO, 24 h
  Mutant p53 Protein, Percent Reduction Relative to Vehicle Control: 93.74%
  Total p53 Protein, Percent Reduction Relative to Vehicle Control: 81.75%
  WT p53 Protein, Fold Change over Vehicle Control: 1.08 fold
150 mg/kg BIDx1 PO, 48 h
  Mutant p53 Protein, Percent Reduction Relative to Vehicle Control: 81.64%
  Total p53 Protein, Percent Reduction Relative to Vehicle Control: 81.46%
  WT p53 Protein, Fold Change over Vehicle Control: 0.94 fold
150 mg/kg BIDx1 PO, 72 h
  Mutant p53 Protein, Percent Reduction Relative to Vehicle Control: 58.64%
  Total p53 Protein, Percent Reduction Relative to Vehicle Control: 60.43%
  WT p53 Protein, Fold Change over Vehicle Control: 0.86 fold
150 mg/kg BIDx1 PO, 98 h
  Mutant p53 Protein, Percent Reduction Relative to Vehicle Control: 0.00%
  Total p53 Protein, Percent Reduction Relative to Vehicle Control: 0.60%
  WT p53 Protein, Fold Change over Vehicle Control: 0.95 fold
150 mg/kg BIDx1 PO, […]
  Mutant p53 Protein, Percent Reduction Relative to Vehicle Control: 34.14%
  Total p53 Protein, Percent Reduction Relative to Vehicle Control: 32.40%
  WT p53 Protein, Fold Change over Vehicle Control: 0.86 fold
150 mg/kg BID×1 PO, 8 h
  increase in WT conformation p53: 1.45 fold
